From patent US8653087B2, “Pyrido [5, 4-D] pyrimidines as cell proliferation inhibitors” (Boehringer Ingelheim International GmbH, priority 2008, dated 2014)
pIC50: −log10 of the molar value.

The molecules below were run against B-Raf (V600E)-kinase (Homo sapiens (Human), UniProt P15056, V600E) (assay: Kinase test B-RAF (V600E)). Conditions: B-RAF (V600E) kinase test, 250 μM ATP.
Type: biochemical
Outline: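 Read-out is DELFIA europium TRF of phospho-MEK (Ser217/221) on biotinylated MEK1 bound to streptavidin plates, IC50 from dose-response. Reaction ran 60 min at RT with 250 μM ATP, after a 24 h RT preincubation of compound with B-Raf (V600E) kinase, 5% DMSO final.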

Sequence of B-Raf (V600E)-kinase (P15056 whole entry V600E): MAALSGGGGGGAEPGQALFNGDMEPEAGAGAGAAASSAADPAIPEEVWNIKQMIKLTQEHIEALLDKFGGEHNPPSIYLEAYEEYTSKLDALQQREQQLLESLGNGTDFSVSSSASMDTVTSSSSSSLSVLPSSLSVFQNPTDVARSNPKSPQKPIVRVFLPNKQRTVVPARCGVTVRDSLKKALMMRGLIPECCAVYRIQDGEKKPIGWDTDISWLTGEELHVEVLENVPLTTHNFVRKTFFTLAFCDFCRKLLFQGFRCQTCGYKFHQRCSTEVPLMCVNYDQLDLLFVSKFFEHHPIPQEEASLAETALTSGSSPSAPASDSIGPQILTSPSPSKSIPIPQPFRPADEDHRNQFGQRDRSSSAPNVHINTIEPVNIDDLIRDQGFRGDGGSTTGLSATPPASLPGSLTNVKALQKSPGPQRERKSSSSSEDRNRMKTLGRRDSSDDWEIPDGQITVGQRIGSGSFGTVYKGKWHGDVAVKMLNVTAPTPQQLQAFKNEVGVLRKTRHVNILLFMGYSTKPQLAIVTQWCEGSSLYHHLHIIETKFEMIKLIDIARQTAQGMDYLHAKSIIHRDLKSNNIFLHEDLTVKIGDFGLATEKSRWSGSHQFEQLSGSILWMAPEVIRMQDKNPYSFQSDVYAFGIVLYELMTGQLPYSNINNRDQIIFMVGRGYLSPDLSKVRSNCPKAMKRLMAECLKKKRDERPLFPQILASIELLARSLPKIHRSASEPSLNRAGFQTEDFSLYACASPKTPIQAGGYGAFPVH

Row | pIC50 | SMILES
1 | 9.00 | Cc1cn(-c2cc(NC(=O)c3ccc(C)c(Nc4ncnc5cnc(NC6CCOC6)nc45)c3)cc(C(F)(F)F)c2)cn1 (centres unmarked) [III-507]
2 | 8.40 | COc1ccc(NC(=O)c2ccc(C)c(Nc3ncnc4cnc(N5CCN(C6CCN(C)CC6)CC5)nc34)c2)cc1C(F)(F)F [III-557]
3 | 7.77 | Cc1ccc(C(=O)Nc2cc(C(C)(C)C)nn2C)cc1Nc1ncnc2cnc(N(C)CC3CCCCO3)nc12 (centres unmarked) [III-476]
4 | 8.52 | Cc1ccc(C(=O)Nc2cc(C(F)(F)F)ccn2)cc1Nc1ncnc2cnc(N3CCN(CC(C)C)CC3)nc12 [III-449]
5 | 9.00 | Cc1ccc(C(=O)Nc2cccc(C(C)(C)C#N)c2)cc1Nc1ncnc2cnc(N3CCOCC3)nc12 [III-322]
6 | > 9.00 | CN1CCN(c2cc(NC(=O)c3ccc(F)c(Nc4ncnc5cnc(NC6CCOC6)nc45)c3)cc(C(F)(F)F)c2)CC1 (centres unmarked) [III-388]
7 | 9.00 | COc1ncc2ncnc(Nc3cc(C(=O)Nc4cccc(C(F)(F)F)c4)ccc3C)c2n1 [III-568]
8 | 7.30 | CN1CCCN(c2nc(N)c3ncnc(Nc4cccc(C(=O)Nc5cccc(C(F)(F)F)c5)c4)c3n2)CC1 [I-20]
9 | 8.30 | Cc1ccc(NC(=O)c2cccc(C(C)(C)C#N)c2)cc1Nc1ncnc2cnc(N(C)C3CCOCC3)nc12 [IV-31]
10 | 8.70 | Cc1ccc(C(=O)Nc2cc(N3CCN(C(C)C)CC3)cc(C(F)(F)F)c2)cc1Nc1ncnc2cnc(N3CCOCC3)nc12 [III-461]
11 | 7.46 | COc1ccc(C(=O)Nc2cccc(C(F)(F)F)c2)cc1Nc1ncnc2c(N)nc(N3CCN(C)CC3)nc12 [I-30]
12 | > 9.00 | CCN1CCN(c2cc(NC(=O)c3ccc(C)c(Nc4ncnc5cnc(NC6CCOC6)nc45)c3)cc(C(F)(F)F)c2)CC1 (centres unmarked) [III-351]
13 | 8.10 | COc1ccc(NC(=O)c2ccc(C)c(Nc3ncnc4cnc(-n5cnc(C)c5)nc34)c2)cc1C(F)(F)F [III-549]
14 | 7.30 | Cc1ccc(C(=O)NCc2cccc(C(C)(C)C)c2)cc1Nc1ncnc2cnc(N3CCN(C)CC3)nc12 [III-310]
15 | 9.00 | COCCNc1ncc2ncnc(Nc3cc(C(=O)Nc4cc(OCCN(C)C)cc(C(F)(F)F)c4)ccc3C)c2n1 [III-151]
16 | 7.00 | Cc1ccc(C(=O)NCc2ccc(C(C)(C)C)cc2)cc1Nc1ncnc2cnc(N3CCN(C)CC3)nc12 [III-226]
17 | 8.05 | COc1ccc(NC(=O)c2ccc(C)c(Nc3ncnc4cnc(N(C)CC5CCCCO5)nc34)c2)cc1C(F)(F)F (centres unmarked) [III-409]
18 | 7.68 | COc1ccc(C(C)(C)C)cc1NC(=O)c1ccc(C)c(Nc2ncnc3c(N)nc(N4CCN(C)CC4)nc23)c1 [I-53]
19 | 7.02 | Cc1ccc(NC(=O)c2cccc(C(F)(F)F)c2)cc1Nc1ncnc2c(N)nc(NCc3ccccn3)nc12 [II-6]
20 | 5.85 | Cc1ccc(C(=O)NC2CCCCC2)cc1Nc1ncnc2cnc(N3CCOCC3)nc12 [III-325]
21 | > 9.00 | CN1CCN(c2cc(NC(=O)c3ccc(F)c(Nc4ncnc5cnc(N6CCOCC6)nc45)c3)cc(C(F)(F)F)c2)CC1 [III-382]
22 | 8.22 | COc1ccc(C(=O)Nc2ccc(OC)c(C(F)(F)F)c2)cc1Nc1ncnc2cnc(N3CCN(C)CC3)nc12 [III-22]
23 | 5.00 | Cc1ccc(NS(C)(=O)=O)cc1Nc1ncnc2cnc(N3CCN(C)CC3)nc12 [IV-66]
24 | 8.52 | COc1ccc(C(=O)Nc2ccc(OC)c(C(F)(F)F)c2)cc1Nc1ncnc2cnc(N3CCCN(C)CC3)nc12 [III-20]

Row | pIC50 | SMILES
25 | 8.40 | Cn1nc(C(C)(C)C)cc1NC(=O)c1cc(Cl)cc(Nc2ncnc3cnc(N4CCCC4)nc23)c1 [III-377]
26 | 8.22 | Cc1ccc(C(=O)Nc2cc(C(C)(C)C)n[nH]2)cc1Nc1ncnc2cnc(N3CCCN(C)CC3)nc12 [III-446]
27 | 9.00 | Cc1ccc(C(=O)Nc2cc(C(C)(C)C)on2)cc1Nc1ncnc2cnc(N3CCC(N4CCOCC4)CC3)nc12 [III-489]
28 | 8.10 | Cc1ccc(C(=O)Nc2ccc3c(c2)C(C)(C)C(=O)N3CCN2CCCC2)cc1Nc1ncnc2cnc(N3CCCN(C)CC3)nc12 [III-252]
29 | 8.70 | Cc1ccc(C(=O)Nc2cc(C(C)(C)C)on2)cc1Nc1ncnc2cnc(N3CCN(C(C)C)CC3)nc12 [III-492]
30 | < 4.82 | Cc1ccc(C(=O)NCC2CCOC2)cc1Nc1ncnc2cnc(N3CCOCC3)nc12 (centres unmarked) [III-193]
31 | 8.70 | Cc1ccc(NC(=O)c2cccc(C(C)(C)C#N)c2)cc1Nc1ncnc2cnc(N3CCN(C4CC4)CC3)nc12 [IV-26]
32 | 8.40 | COCCN1CCN(c2ncc3ncnc(Nc4cc(C(=O)Nc5cc(OC)cc(C(F)(F)F)c5)ccc4C)c3n2)CC1 [III-535]
33 | 8.70 | COCCN(C)c1ncc2ncnc(Nc3cc(C(=O)Nc4cc(C(C)(C)C)nn4C)ccc3C)c2n1 [III-465]
34 | 6.23 | COc1ccc(NC(=O)c2ccc(C(F)(F)F)c(Nc3ncnc4cnc(NCCCN5CCOCC5)nc34)c2)cc1C(F)(F)F [III-49]
35 | > 9.00 | CN1CCCN(c2ncc3ncnc(Nc4cc(C(=O)Nc5cc(C(C)(C)C)on5)ccc4F)c3n2)CC1 [III-86]
36 | < 5.70 | Cc1ccc(C(=O)NCC2CCOC2)cc1Nc1ncnc2cnc(N3CCN(C)CC3)nc12 (centres unmarked) [III-187]
37 | 9.00 | Cc1ccc(C(=O)Nc2cccc(OC(F)(F)F)c2)cc1Nc1ncnc2cnc(N3CCOCC3)nc12 [III-410]
38 | 8.52 | CN1CCC(N2CCN(c3nc(N)c4ncnc(Nc5cc(C(=O)Nc6cccc(C(F)(F)F)c6)ccc5Cl)c4n3)CC2)CC1 [I-25]
39 | 7.60 | CCN1CCN(c2cc(NC(=O)c3ccc(C)c(Nc4ncnc5cnc(N(C)CC6CCCCO6)nc45)c3)cc(C(F)(F)F)c2)CC1 (centres unmarked) [III-408]
40 | 9.00 | Cc1ccc(NC(=O)c2cccc(C(C)(C)C#N)c2)cc1Nc1ncnc2cnc(N(C)C)nc12 [IV-12]
41 | 8.40 | CC(C)(C)c1cc(NC(=O)c2ccc(F)c(Nc3ncnc4cnc(N5CCOCC5)nc34)c2)no1 [III-89]
42 | > 9.00 | Cc1ccc(C(=O)Nc2cccc(C(F)(F)F)c2)cc1Nc1ncnc2c(N)nc(N3CCN(CC4CCN(C)CC4)CC3)nc12 [I-61]
43 | > 9.00 | Cc1ccc(C(=O)Nc2cc(OCCN(C)C)cc(C(F)(F)F)c2)cc1Nc1ncnc2cnc(NCC(C)C)nc12 [III-153]
44 | 8.70 | COc1ccc(NC(=O)c2ccc(F)c(Nc3ncnc4cnc(NCCN(C)C)nc34)c2)cc1C(F)(F)F [III-39]
45 | 8.52 | COc1ccc(NC(=O)c2ccc(Cl)c(Nc3ncnc4cnc(NCCN(C)C)nc34)c2)cc1C(F)(F)F [III-14]
46 | 8.70 | Cc1ccc(NC(=O)c2cccc(C(C)(C)C#N)c2)cc1Nc1ncnc2cnc(N3CC[C@@H](F)C3)nc12 [IV-34]
47 | 8.40 | COc1ccc(NC(=O)c2ccc(F)c(Nc3ncnc4cnc(N5CCOCC5)nc34)c2)cc1C(F)(F)F [III-37]
48 | 8.22 | COc1ccc(C(C)(C)C)cc1NC(=O)c1ccc(C)c(Nc2ncnc3cnc(N4CCN(C)CC4)nc23)c1 [III-230]

Row | pIC50 | SMILES
49 | 7.06 | CN1CCCN(c2ncc3ncnc(Nc4cc(C(=O)Nc5cc(C(C)(C)C)on5)ccc4C(F)(F)F)c3n2)CC1 [III-58]
50 | 8.52 | CCN(CC)c1ncc2ncnc(Nc3cc(C(=O)Nc4cc(OCCN(C)C)cc(C(F)(F)F)c4)ccc3C)c2n1 [III-157]
51 | 7.92 | COc1c(CNC(C)C)cc(C(F)(F)F)cc1NC(=O)c1ccc(C)c(Nc2ncnc3cnc(N4CC[C@H](F)C4)nc23)c1 [III-542]
52 | 8.52 | COC[C@@H]1CCCN1c1ncc2ncnc(Nc3cc(C(=O)Nc4cc(C(C)(C)C)on4)ccc3C)c2n1 [III-362]
53 | 6.93 | Cc1ccc(C(=O)NCc2cccc(C(C)(C)C)c2)cc1Nc1ncnc2cnc(N(C)CCN(C)C)nc12 [III-3]
54 | 5.00 | Cc1ccc(NS(=O)(=O)CC(F)(F)F)cc1Nc1ncnc2cnc(N3CCN(C)CC3)nc12 [IV-53]
55 | 6.71 | COCCN1CCN(c2ncc3ncnc(N(C)c4cc(C(=O)Nc5ccc(OC)c(C(F)(F)F)c5)ccc4C)c3n2)CC1 [III-586]
56 | < 6.00 | CC(C)(C)c1cc(NC(=O)c2ccc(C(F)(F)F)c(Nc3ncnc4cnc(N5CCCC5)nc34)c2)no1 [III-64]
57 | > 9.00 | Cc1ccc(C(=O)Nc2cc(OCCN(C)C)cc(C(F)(F)F)c2)cc1Nc1ncnc2cnc(N3CCOCC3)nc12 [III-149]
58 | 8.70 | Cc1ccc(C(=O)Nc2cccc(C(C)(C)C)c2)cc1Nc1ncnc2cnc(N3CCCC3)nc12 [III-272]
59 | 9.00 | COc1ccc(NC(=O)c2ccc(C)c(Nc3ncnc4cnc(N5CCC(CN(C)C)CC5)nc34)c2)cc1C(F)(F)F [III-599]
60 | 8.40 | COc1ccc(NC(=O)c2ccc(C)c(Nc3ncnc4cnc(N5CCN(CC(C)C)CC5)nc34)c2)cc1C(F)(F)F [III-444]
61 | 5.54 | Cc1ccc(C(=O)Nc2ccccc2)cc1Nc1ncnc2cnc(N3CCCN(C)CC3)nc12 [III-184]
62 | 9.00 | COc1ccc(NC(=O)c2ccc(C)c(Nc3ncnc4cnc(NC5CC(N6CCN(C)CC6)C5)nc34)c2)cc1C(F)(F)F (centres unmarked) [III-593]
63 | 6.01 | Cc1ccc(C(=O)NCc2cccc(C(F)(F)F)c2)cc1Nc1ncnc2cnc(N(C)CCN(C)C)nc12 [III-200]
64 | 6.35 | Cc1ccc(C(=O)Nc2nnc(C(F)(F)F)s2)cc1Nc1ncnc2cnc(N3CCCCC3)nc12 [III-328]
65 | 8.30 | COc1c(CNC(C)C)cc(C(F)(F)F)cc1NC(=O)c1ccc(C)c(Nc2ncnc3cnc(N4CCOCC4)nc23)c1 [III-540]
66 | > 9.00 | Cc1ccc(C(=O)Nc2cccc(C(C)(C)C)c2)cc1Nc1ncnc2cnc(NCC(C)C)nc12 [III-500]
67 | 8.00 | CCN1CCN(c2cc(NC(=O)c3ccc(C)c(Nc4ncnc5c(N)nc(N6CC[C@H](F)C6)nc45)c3)cc(C(F)(F)F)c2)CC1 [I-88]
68 | 8.52 | Cc1ccc(C(=O)Nc2cccc(C(F)(F)F)c2)cc1Nc1ncnc2c(N)nc(N3CCCN(c4ccccn4)CC3)nc12 [I-67]
69 | 8.40 | CC(=O)N1CCN(c2ncc3ncnc(Nc4cc(NC(=O)c5cccc(C(C)(C)C#N)c5)ccc4C)c3n2)CC1 [IV-36]
70 | 7.66 | CN1CCC(N2CCN(c3nc(N)c4ncnc(Nc5cccc(C(=O)Nc6cccc(C(F)(F)F)c6)c5)c4n3)CC2)CC1 [I-21]
71 | 8.05 | Cc1ccc(NC(=O)c2cc(N3CCN(C)CC3)cc(C(F)(F)F)c2)cc1Nc1ncnc2cnc(N(C)CCN(C)C)nc12 [IV-18]
